Test results as given in paper PMC6030159 (Scientific Reports, 2018).
“Also recorded” adds a separate entry of the source.

Columns and labels:
[1] = tested on: T1, MYC:MAX; test: Gaussia luciferase complementation (GLuc) MYC:MAX; format: cell-based, human; settings: 25 μM, 17 hours, HEK293 cells
T1 construct: fused to full length MYC (MYC-GLuc-C) and MAX (MAX-GLuc-N), respectively; expressed in transfected cells; host or cells: HEK293
Description: The protein fragment complementation assay using the Gaussia luciferase has been described. 0.2–0.4 μg of each GLuc-construct (see Supplementary Information) together with 0.05–0.2 μg pCMV-Luc (Firefly luciferase) were transiently transfected into HEK293 or COS-7 cells in 6-well plates. 24 hours later cells were treated with compound (10–25 μM) or DMSO. After another 17 hours, the cells were harvested and lyzed in passive lysis buffer (Promega) supplemented with complete protease inhibitor (Roche). After 60 min incubation at room temperature 20 μM D-luciferin was added (substrate of Firefly luciferase) and luminescence was measured in a Lumat LB9501 (Berthold) or OmegaFluostar (BMG Labtech) luminometer. Directly after, Gaussia luciferase substrate Coelenterazine (Promega) was added to a final concentration of 20 μM in a mixture with “Stop n’ Glow” (Promega) and the luciferase activity was measured. The ratio between Gaussia and Firefly luciferase values were calculated and normalized to DMSO-treated control cells.

[2] = biological target: T2, MAX bHLHZip (Homo sapiens, UniProt P61244); test: MST direct binding to MAX; settings: 3 μM MYCMI-6, MAX titrated
T2 sequence (P61244 23-102 limits assumed): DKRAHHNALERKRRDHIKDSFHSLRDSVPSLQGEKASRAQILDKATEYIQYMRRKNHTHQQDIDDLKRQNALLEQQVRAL
Description: To determine whether MYCMI-6 binds directly to MYC (or MAX), MST and SPR were applied. The bHLHZip domains of MYC or MAX, respectively (Suppl. Fig. S1C), were titrated and mixed with 3 μM of MYCMI-6.
MST was carried out on a Monolith NT.115 with blue/green filters, kindly provided by Luca Jovine, Karolinska Institutet Huddinge, according to manufacturer’s protocol (NanoTemper). MYCbHLHZip, MAXbHLHZip, BSA and BCL-XL recombinant proteins and compounds were diluted and titrated in PBS supplemented with 0.05% Triton-X-114 or 0.05% Tween-20. Titration of molecules was carried out in 16 PCR tubes into which a fixed concentration of fluorescent molecule was added. The mixture was applied to capillaries (standard treated, NanoTemper), and scanned in the Monolith NT.115 to measure initial fluorescence of molecule. MST was induced and fluorescence was measured during 40 seconds. Double measurements were carried out (MST power of 20% and 40%, or 40% and 60%) for each sample. Delta fluorescence or relative fluorescence of fluorescent molecule normalized to control vehicle was plotted against titrated molecule concentration. The protein labeling kit GREEN-NHS (NanoTemper) was used to label primary amines of proteins according to manufacture’s protocol.

[3] = biological target: T2, MAX bHLHZip; test: SPR binding to MAX
Description: The MYC SPR assay was carried out as described above with MYCbHLHZip immobilized to a level of 800–1000 RU. For kinetic binding experiments, a Langmuir 1:1 binding event was applied using the Biacore T200 Evaluation Software 2.0 (GE Healthcare) to determine association (ka) and dissociation (kd) constants of the compound and to calculate affinity (KD) by the formula; KD = kd/ka. Binding responses from equilibrium binding experiments were plotted against compound concentration and KD values were determined at 50% of the theoretical Rmax with the formula Rmax = (MW analyte/MW ligand) × immobilized ligand level on the chip (RU) × stoichiometry (1:1). Same coupling method described above was used to immobilize the control proteins. MAX was immobilized to approximately 2000 RU, MAD to 600 RU, BSA to 1000 RU, p53 to 3000 RU and BCL-XL, to 500 RU.

[4] = tested on: YFP; test: SPR binding to YFP; settings: data not shown
[5] = tested on: HO15.19 (MYC knockout) Rat1 fibroblasts; test: WST-1 growth assay, HO15.19 (MYC knockout) Rat1 fibroblasts; format: cell-based, rat
Description: (§1) Cell proliferation assays. Cell growth and viability was estimated in triplicates with WST-1
(§2) (Roche) or Resazurin sodium salt (Sigma-Aldrich) assays in medium at 37°C and 5% CO 2 for
(§3) 2 hours after which absorbance or fluorescence, respectively, was measured with an Omega
(§4) Fluostar (BMG Labtech) in a 96 well plate format. […]
(§5) 0.7% agarose. […]

[6] = tested on: HOmyc3 (MYC reconstituted HO15.19) Rat1 fibroblasts; test: WST-1 growth assay, HOmyc3 (MYC reconstituted) Rat1 fibroblasts; format: cell-based, rat
Description: as §1, §2, §3, §4, §5

[7] = tested on: normal IMR-90 and BJ human fibroblasts; test: Viable/dead cell counting, normal fibroblasts; format: cell-based; settings: 12.5 μM, 24 hours
Description: Triton-X-114 (Sigma). Truncated p53 core protein was a kind gift from Klas Wiman, CCK, […]
Cell proliferation assays. Cell growth and viability was estimated in triplicates with WST-1 (Roche) or Resazurin sodium salt (Sigma-Aldrich) assays in medium at 37°C and 5% CO 2 for 2 hours after which absorbance or fluorescence, respectively, was measured with an Omega Fluostar (BMG Labtech) in a 96 well plate format. Cell counting was done in 96 well plates with CellTracker Green (ThermoFisher) for 30 min in the incubator, after which DAPI was added for 5 min. Images were taken in the green (FITC) and blue (DAPI) channels using a fluorescence microscope (ImageXpress Micro, Molecular Devices). […] After 16 days, the colonies were stained with 100 µg/ml MTT (Sigma) overnight and colonies were counted.
Immunohistochemistry. Apoptosis was visualized at the single-cell level on tumor cryosections using the TUNEL method using the In Situ Cell Death Detection Fluorescein-Roche kit and analyzed by fluorescence microscopy. […] Cell proliferation and microvascular density (MVD) were evaluated through Ki67 and CD31staining, respectively, on tumor cryosections and detected by immunofluoresence. […] For quantification, areas with positive TUNEL and Ki67 staining were measured using Image J software. For the analysis of MVD, the number of vessel structures per microscopic field was calculated.

[8] = tested on: hTERT; set-up: method as in PMID 23173022; settings: found artificial, unspecific DNA binding; cited from earlier work
[9] = tested on: HDM2; set-up: method as in PMID 19202599; settings: cited from earlier work

CCOc1ccc2nc3cc(/N=N/c4ccc(N)nc4N)ccc3c(N)c2c1 [MYCMI-6]
MYC:MAX GLuc activity [1]: most potent | binding to MAX bHLHZip (MST) [2]: no obvious changes; also recorded: did not bind to MAX | binding to MAX (SPR) [3]: negligible; also recorded: did not bind to MAX | binding to YFP (SPR) [4]: negligible | growth of MYC null (HO15.19) cells [5]: did not significantly affect growth | growth of MYC reconstituted (HOmyc3) cells [6]: strongly inhibited growth | number of viable cells and percentage of dead cells, normal fibroblasts [7]: only marginal effects; also recorded: not cytotoxic | IC50 for hTERT relative to MYC:MAX in vitro [8]: approximately 10 fold | IC50 for HDM2 relative to MYC:MAX in vitro [9]: approximately 10 fold
